# Assay results reported in US8962651B2, “Compounds for the treatment of hepatitis C” (Bristol-Myers Squibb Company, priority 2013, dated 2015).
# Tested on: genotype 1b (Con-1) HCV replicon
# Experiment: HCV replicon luciferase assay
# Type: cell-based
# Conditions: 1b replicon, Huh-7 cells, Renilla luciferase, 3 days incubation
# Protocol: The cell lines used to evaluate compounds consist of a human hepatocyte derived cell line (Huh-7) that constitutively expresses a genotype 1b (Con-1) HCV replicon or a genotype 1b (Con-1) HCV replicon with an asparagine replacing the cysteine at amino acid 316, or a genotype 2a (JFH-1) replicon, containing a Renilla luciferase reporter gene. These cells were maintained in Dulbecco's modified Eagle medium (DMEM) containing 10% FBS, 100 U/mL penicillin/streptomycin and 1.0 mg/mL G418.
# After 3 days incubation at 37° C., cells were analyzed for Renilla Luciferase activity using the EnduRen substrate (Promega cat #E6485) according to the manufacturer's directions. Briefly, the EnduRen substrate was diluted in DMEM and then added to the plates to a final concentration of 7.5 μM. The plates were incubated for at least 1 h at 37° C. then read on a Viewlux Imager (PerkinElmer) using a luminescence program.
row,Compound,EC50 [nM]
1,"CCC(C)c1nc2oc(-c3ccc(F)cc3)c(C(=O)NC)c2cc1-c1cccc(C(=O)NC(C)(C)c2ncon2)c1 (centres unmarked) [Example 16, 5-(3-((2-(1,2,4-oxadiazol-3-yl)propan-2-yl)carbamoyl)phenyl)-6-(sec-butyl)-2-(4-fluorophenyl)-N-methylfuro[2,3-b]pyridine-3-carboxamide]",20
2,"CCC(C)c1nc2oc(-c3ccc(F)cc3)c(C(=O)NC)c2cc1-c1cccc(C(=O)NC(C)(C)c2ncon2)c1 (centres unmarked) [Example 15, 5-(3-((2-(1,2,4-oxadiazol-3-yl)propan-2-yl)carbamoyl)phenyl)-6-(sec-butyl)-2-(4-fluorophenyl)-N-methylfuro[2,3-b]pyridine-3-carboxamide]",4.98

# Same assay, conditions: Hepatitis C virus, Huh-7, 72 h, 1b replicon, Huh-7 cells, Renilla luciferase, 3 days incubation
row,Compound,EC50 [nM]
1,"[2H]C([2H])([2H])Oc1ncc(-c2cc3c(C(=O)NC)c(-c4ccc(F)cc4)oc3nc2NCC(F)(F)F)cc1C(=O)NC(c1ncon1)(C([2H])([2H])[2H])C([2H])([2H])[2H] [Example 18, 5-[2-(4-fluorophenyl)-3-(methylcarbamoyl)-6-[(2,2,2-trifluoroethyl)amino]furo[2,3-b]pyridin-5-yl]-2-(^2H3)methoxy-N-[2-(1,2,4-oxadiazol-3-yl)(^2H6)propan-2-yl]pyridine-3-carboxamide]",4.32
2,"CNC(=O)c1c(-c2ccc(F)cc2)oc2nc(CCC(F)(F)F)c(-c3cccc(C(=O)NC(C)(C)c4noc(C)n4)c3)cc12 [Example 10, 2-(4-fluorophenyl)-N-methyl-5-(3-((2-(5-methyl-1,2,4-oxadiazol-3-yl)propan-2-yl)carbamoyl)phenyl)-6-(3,3,3-trifluoropropyl)furo[2,3-b]pyridine-3-carboxamide]",3.61
3,"CNC(=O)c1c(-c2ccc(F)cc2)oc2nc(NCC(F)(F)F)c(-c3cccc(C(=O)NC(C)(C)c4nc(C)no4)c3)cc12 [Example 7, 2-(4-fluorophenyl)-N-methyl-5-(3-((2-(3-methyl-1,2,4-oxadiazol-5-yl)propan-2-yl)carbamoyl)phenyl)-6-((2,2,2-trifluoroethyl)amino)furo[2,3-b]pyridine-3-carboxamide]",3.46
4,"CNC(=O)c1c(-c2ccc(F)cc2)oc2nc(NCC(F)(F)F)c(-c3cnc(OC)c(C(=O)NC(C)(C)c4ncon4)c3)cc12 [Example 29, 5-[2-(4-fluorophenyl)-3-(methylcarbamoyl)-6-[(2,2,2-trifluoroethyl)amino]furo[2,3-b]pyridin-5-yl]-2-methoxy-N-[2-(1,2,4-oxadiazol-3-yl)propan-2-yl]pyridine-3-carboxamide]",8.01
5,"CNC(=O)c1c(-c2ccc(F)cc2)oc2nc(NCC(F)(F)F)c(-c3ccc(OC)c(C(=O)NC(C)(C)c4ncon4)c3)cc12 [Example 14, 5-(3-((2-(1,2,4-oxadiazol-3-yl)propan-2-yl)carbamoyl)-4-methoxyphenyl)-2-(4-fluorophenyl)-N-methyl-6-((2,2,2-trifluoroethyl)amino)furo[2,3-b]pyridine-3-carboxamide]",6.67
6,"[2H]C([2H])([2H])Oc1ncc(-c2cc3c(C(=O)NC)c(-c4ccc(F)cc4)oc3nc2OCC(F)(F)F)cc1C(=O)NC(C)(C)c1ncon1 [Example 22, 5-[2-(4-fluorophenyl)-3-(methylcarbamoyl)-6-(2,2,2-trifluoroethoxy)furo[2,3-b]pyridin-5-yl]-2-(^2H3)methoxy-N-[2-(1,2,4-oxadiazol-3-yl)propan-2-yl]pyridine-3-carboxamide]",1.7
7,"CNC(=O)c1c(-c2ccc(F)cc2)oc2nc(NCC(F)(F)F)c(-c3cccc(C(=O)NC4(c5nc(C)no5)CC4)c3)cc12 [Example 8, 2-(4-fluorophenyl)-N-methyl-5-(3-((1-(3-methyl-1,2,4-oxadiazol-5-yl)cyclopropyl)carbamoyl)phenyl)-6-((2,2,2-trifluoroethyl)amino)furo[2,3-b]pyridine-3-carboxamide]",5.6
8,"[2H]C([2H])([2H])Oc1ncc(-c2cc3c(C(=O)NC)c(-c4ccc(F)cc4)oc3nc2OCC(F)(F)F)cc1C(=O)NC(c1ncon1)(C([2H])([2H])[2H])C([2H])([2H])[2H] [Example 21, 5-[2-(4-fluorophenyl)-3-(methylcarbamoyl)-6-(2,2,2-trifluoroethoxy)furo[2,3-b]pyridin-5-yl]-2-(^2H3)methoxy-N-[2-(1,2,4-oxadiazol-3-yl)(^2H6)propan-2-yl]pyridine-3-carboxamide]",2.23
9,"[2H]c1nc(C(NC(=O)c2cc(-c3cc4c(C(=O)NC)c(-c5ccc(F)cc5)oc4nc3NCC(F)(F)F)cnc2OC([2H])([2H])[2H])(C([2H])([2H])[2H])C([2H])([2H])[2H])no1 [Example 19, 5-[2-(4-fluorophenyl)-3-(methylcarbamoyl)-6-[(2,2,2-trifluoroethyl)amino]furo[2,3-b]pyridin-5-yl]-2-(^2H3)methoxy-N-{2-[(^2H)-1,2,4-oxadiazol-3-yl](^2H6)propan-2-yl}pyridine-3-carboxamide]",5.77
10,"CNC(=O)c1c(-c2ccc(F)cc2)oc2nc(CCC(F)(F)F)c(-c3cccc(C(=O)NC(C)(C)c4ncon4)c3)cc12 [Example 1, 5-(3-((2-(1,2,4-oxadiazol-3-yl)propan-2-yl)carbamoyl)phenyl)-2-(4-fluorophenyl)-N-methyl-6-(3,3,3-trifluoropropyl)furo[2,3-b]pyridine-3-carboxamide]",3.02
11,"[2H]C([2H])([2H])Oc1ncc(-c2cc3c(C(=O)NC)c(-c4ccc(F)cc4)oc3nc2CCC(F)(F)F)cc1C(=O)NC(C)(c1ncon1)C1CC1 (centres unmarked) [Example 30, N-[1-cyclopropyl-1-(1,2,4-oxadiazol-3-yl)ethyl]-5-[2-(4-fluorophenyl)-3-(methylcarbamoyl)-6-(3,3,3-trifluoropropyl)furo[2,3-b]pyridin-5-yl]-2-(^2H3)methoxypyridine-3-carboxamide]",4.35
12,"[2H]C([2H])([2H])C(NC(=O)c1cc(-c2cc3c(C(=O)NC)c(-c4ccc(F)cc4)oc3nc2NCC(F)(F)F)cnc1OC)(c1ncon1)C([2H])([2H])[2H] [Example 26, 5-[2-(4-fluorophenyl)-3-(methylcarbamoyl)-6-[(2,2,2-trifluoroethyl)amino]furo[2,3-b]pyridin-5-yl]-2-methoxy-N-[2-(1,2,4-oxadiazol-3-yl)(^2H6)propan-2-yl]pyridine-3-carboxamide]",6.26
13,"CNC(=O)c1c(-c2ccc(F)cc2)oc2nc(NCC(F)(F)F)c(-c3cccc(C(=O)NC4(c5noc(C)n5)CC4)c3)cc12 [Example 6, 2-(4-fluorophenyl)-N-methyl-5-(3-((1-(5-methyl-1,2,4-oxadiazol-3-yl)cyclopropyl)carbamoyl)phenyl)-6-((2,2,2-trifluoroethyl)amino)furo[2,3-b]pyridine-3-carboxamide]",4.76
14,"CNC(=O)c1c(-c2ccc(F)cc2)oc2nc(NCC(F)(F)F)c(-c3cccc(C(=O)NC(C)(C)c4ncon4)c3)cc12 [Example 12, 5-(3-((2-(1,2,4-oxadiazol-3-yl)propan-2-yl)carbamoyl)phenyl)-2-(4-fluorophenyl)-N-methyl-6-((2,2,2-trifluoroethyl)amino)furo[2,3-b]pyridine-3-carboxamide]",2.95
15,"CNC(=O)c1c(-c2ccc(F)cc2)oc2nc(NCC(F)(F)F)c(-c3cccc(C(=O)NC(C)(C)c4noc(C)n4)c3)cc12 [Example 11, 2-(4-fluorophenyl)-N-methyl-5-(3-((2-(5-methyl-1,2,4-oxadiazol-3-yl)propan-2-yl)carbamoyl)phenyl)-6-((2,2,2-trifluoroethyl)amino)furo[2,3-b]pyridine-3-carboxamide]",4.96
